Experimental data published in patent US8053627B2, “Methods for treating demyelination disorders” (University of Chicago, priority 2005, dated 2011).

What was measured:
[1] = test system: Stat1; experiment: Stat1 nuclear translocation assay in mixed primary oligodendrocyte cultures; format: cell-based, mice; conditions: 100 U/mL IFN-γ for 30 min, one hundred PLP positive cells counted
Experimental: Mixed primary oligodendrocyte cultures were prepared as previously described (Baerwald et al., 2000). Briefly, brain tissue was harvested from 2-3-day-old newborn pups of PLP/SOCS1 and C57B1/6J matings. Because the litters contained transgenic and wild-type pups, the brain of each animal was processed individually, cultured separately, and later genotype matched. Each brain was digested separately using 0.25% trypsin and 10 μg/ml of DNAaseI (Invitrogen) in Dulbecco's modified Eagle's medium (DMEM) for 20 min at 37° C., and cells were cultured on separate poly-D-lysine-coated […] flasks (Sigma-Aldrich). The cultures were maintained with 10% fetal bovine serum DMEM at 37° C. with 5% CO2 for 12 days, and then switched to a defined medium containing […], 50 μg/ml of transferrin, 30 nM of selenium, 10 nM of biotin, 10 nM of progesterone, 15 nM of T3, 0.1% bovine serum albumin, and 1% ampicillin-streptomycin (Sigma-Aldrich). […] One hundred PLP positive cells were manually counted in both wild-type and PLP/SOCS1 cultures. […]
The responsiveness of PLP/SOCS1 oligodendrocytes to IFN-γ was studied in primary mixed glial cultures. […] In contrast, Stat1 nuclear translocation was detected only in occasional PLP positive oligodendrocytes (6±2 cells) following IFN-γ stimulation (p<0.05).

[2] = test system: corpus callosum of double transgenic mice treated with cuprizone; experiment: Cuprizone-induced demyelination/remyelination in GFAP/tTA; TRE/IFN-γ double transgenic mice (DOX− expresses IFN-γ); format: in vivo
Experimental: The effects of IFN-γ on demyelination were evaluated in a cuprizone animal model using transgenic mice that allow for temporally regulated delivery of IFN-γ using the tetracycline controllable system (Lin, et al. (2004) J. Neurosci. 24: 10074-10083). The transgenic mice were generated by mating line 110 GFAP/tTA mice on the C57BL/6 background with line 184 TRE/IFN-γ on the C57BL/6 background to produce GFAP/tTA; TRE/IFN-γ double transgenic mice (Lin, et al. (2004) J. Neurosci. 24: 10074-10083). Transcriptional activation of the TRE/IFN-γ transgene by tTA was repressed in the control (DOX+) mice by adding 0.05 mg/ml doxycycline to the drinking water which was provided ad libitum from the day of conception. The DOX+ double transgenic mice were GFAP/tTA; TRE/IFN-γ double transgenic animals fed cuprizone chow and never released from the doxycycline solution. DOX− double transgenic mice were GFAP/tTA; TRE/IFN-γ double transgenic animals fed cuprizone chow and released from doxycycline to induce expression of IFN-γ.
Demyelination was induced in 6-week-old DOX+ and DOX− male mice by feeding the mice a diet of milled mouse chow containing 0.2% cuprizone (Sigma-Aldrich, St. Louis, […].) for up to 6 weeks. Subsequently, both groups of mice were returned to a normal diet for up to 3 weeks to allow remyelination to occur. All animal procedures were conducted in complete compliance with the NIH Guide for the Care and Use of Laboratory Animals and were approved by the Institutional Animal Care and Use Committee of The University of Chicago.
The expression of IFN-γ in these animals was examined by Enzyme-Linked Immunosorbent Assay (ELISA) analysis as follows. Spinal cord and forebrains were removed, rinsed in ice cold PBS, and immediately homogenized in five volumes of PBS with complete protease cocktail (Roche, Indianapolis, Ind.) using a motorized homogenizer. After incubation on ice for 5 min the extracts were cleared by centrifugation at 14000 rpm for 10 min. The protein content of each extract was determined by the DC protein assay (Bio-Rad, Hercules, Calif.). ELISA assays were performed using Mouse IFN-γ Quantikine ELISA kit (R&D system, Minneapolis, Minn.) and MBP antibodies (1:1000; Sternberger Monoclonals) according to the manufacture's instructions.
Real time PCR was used to determine the effect of IFN-yon the expression of MHC-1. RNA was isolated from the corpus callosum (Jurevics, et al., 2002) using Trizol reagent (Invitrogen, Carlsbad, Calif.) and treated with DNAseI (Invitrogen, Carlsbad, Calif.) to eliminate genomic DNA. Reverse transcription was performed using Superscript First Strand Synthesis System for RT-PCR kit (Invitrogen, Carlsbad, Calif.). Real-time PCR was performed with iQ supermix (Bio-Rad, Hercules Calif.) on a Bio-Rad iQ real-time PCR detection system (Bio-Rad, Hercules Calif.). The primers and probes (Integrated DNA Technologies Inc., Coralville, Iowa) for real-time PCR were as follows:
The effect of INF-γ on the population of oligodendrocytes was evaluated by immunohistochemical analysis of oligodendrocytes using an anti-CC1 antibody (APC7, 1:50; EMD Biosciences, Inc., La Jolla, Calif.) Immunohistochemistry was perfomed on brain sections obtained from mice that were first anesthetized mice and perfused through the left cardiac ventricle with 4% paraformaldehyde in 0.1M PBS. The brains were removed, postfixed with paraformaldehyde, cryopreserved in 30% sucrose, embedded in OCT and frozen on dry ice. Frozen sections were cut in a cryostat at a thickness of 10 μm. […]

Substance: IFN-γ: pleotropic cytokine secreted by activated T lymphocytes and natural killer cells; delivered to the CNS by transgene or added as recombinant protein
- PLP positive oligodendrocytes with Stat1 nuclear translocation ([1]; PLP/SOCS1 cultures): 6±2 cells
- PLP positive oligodendrocytes with Stat1 nuclear translocation ([1]; wild-type cultures): 96±3 cells
- CC1 positive oligodendrocytes within the corpus callosum ([2]; DOX− mice, 8 weeks): 78±12.7 /0.04 mm2
- NG2 positive OPCs in the corpus callosum ([2]; DOX− mice, week 4 of cuprizone treatment): 46±4.24 /0.04 mm^2
- NG2 positive OPCs in the corpus callosum ([2]; DOX− mice, week 6): 31.5±0.71 /0.04 mm^2
- expression of myelin genes MBP, PLP and CGT ([2]; DOX− mice, week 6 and week 8): significantly depressed
- remyelinated axons (EM) ([2]; DOX− mice, week 8): 26.9%±7%
- effect on the initial pathological processes induced by cuprizone exposure ([2]; demyelination phase): does not have a significant effect
- expression of MHC-I in the corpus callosum (real-time PCR) ([2]; during remyelination): significant increase
